Values of other authors in US6284774A, “4-Benzyl piperidine alkylsulfoxide heterocycles and their use as subtype-selective NMDA receptor antagonists” (priority 2000, dated 2001).

Columns and labels:
[1] = test system: smooth muscle of the airway; conditions: cited from earlier work
[2] = variety of animal models highly predictive of human anxiety; cited from earlier work

SMILES | ability to relax the smooth muscle of the airway [1] | effectiveness in animal models of anxiety [2]
CNC1(c2ccccc2Cl)CCCCC1=O (centres unmarked) [ketamine] | relax the smooth muscle of the airway | –
C[C@]12N[C@H](Cc3ccccc31)c1ccccc12 [MK801] | – | effective in a variety of animal models of anxiety
